According to patent publication US10583109B2, “Use of silver(I) complexes as anticancer agents” (University of Johannesburg, priority 2012, dated 2020):

What was measured:
Type in all cases: cell-based
[1] = system: SNO-oesophageal cancer cells; assay: Morphological features of SNO-oesophageal cancer cells by inverse light microscopy; conditions: 10 μM, 24 hours of treatment
Procedure: Morphological studies were done by means of an Axiovert 25 inverted microscope (Carl Zeiss, Göttingen, Germany) with Axio Vision 3.1 software (Carl Zeiss, Göttingen, Germany) using an magnification of 100×.
After 24 hours of treatment with complexes (1)-(5) including their ligands the cells were examined under said Axiovert 25 inverted light microscope. This was done to determine how the complexes of the present invention influence morphology which was compared to 100 μM Cisplatin (apoptotic control) and 15% H2O2 (necrotic control).
Light microscope images indicating the morphology of the differentially treated SNO-oesophageal cancer cells is shown in FIG. 8. An untreated control (a) including 100 μM Cisplatin (b), an apoptotic control and 15% H2O2 (c), and a necrotic control was included. Cells were treated with 10 μM silver(I) thiocyanate phosphine complexes (1)-(5) as well as their separate ligands (Ligand-1 to Ligand-5, respectively) (FIGS. 8d to 8m). Black arrows represent signs of apoptosis, while the white arrows represent signs of necrosis.
An Axiovert 25 inverted microscope was used to examine if these complexes affect the morphological features of the malignant cells in any other way. This was done at a magnification of 100× with the use of Axio Version 3.1 software (Carl Zeiss, Gottingen, Germany).
Morphological studies where done after 24 hours of treatment to determine how these compounds influence/change specific features of the malignant SNO-oesophageal cancer cells, compared to the untreated (UC) and 1% DMSO vehicle control. The treated cancer cells including their controls were examined under an Axiovert 25 inverted light microscope (Carl Zeiss, Göttingen, Germany) with Axio Vision 3.1 software (Carl Zeiss, Göttingen, Germany) using a 100× magnification. In FIG. 19, the morphology of the different controls including Ligand-10 and complexes (10)-(12) are represented. To predict the targeting mechanisms of these compounds, the treated cells were compared to 100 μM Cisplatin (apoptotic control) and 25% H2O2 (necrotic control).

[2] = system: SNO-oesophageal cancer cells; conditions: for cells' viability: 10 µM
Procedure: The SNO-oesophageal cancer cells were cultured in Dulbecco's modified Eagles medium (DMEM) containing 10% Foetal bovine serum (FBS), 0.8% Penicillin/Streptomycin/Fungizone and 0.2% Gentamycin. The SNO-oesophageal cancer cells were subcultured every 48 hours and incubated at 37° C. under a 5% CO2 humidified atmosphere. After 48 hours the cells were trypsinized and plated (6×10^5 cells) in 3.5 cm culture dishes and left to cultivate for 24 hours.
MCF-7 breast cancer cells, in terms of a first study, and SNO-oesophageal cancer cells, in terms of a second study, were treated with 10 μM silverthiocyanide complexes (1)-(5), as well as their ligands (Ligand-1 to Ligand-5) over a 24 hour incubation period. These complexes were dissolved in 0.1% Dimethyl sulfoxide (DMSO). The DMSO alone (vehicle control) decreased the viability with approximately 2.2%, signifying its minimal influence in cancer cell growth. For comparative purposes, 100 μM Cisplatin (CDDP) and 25% H2O2 was included which respectively serves as the apoptotic and necrotic controls. Cisplatin was prepared in 0.9% NaCl, whereas H2O2 was prepared in the supplemented DMEM media right before treatment. An untreated negative control (UT) was exposed to similar conditions as the treated cells and monitored during the experimental study.
An AlamarBlue® Viability® (Serotec, UK) assay was performed after a 24 hour treatment with complexes (1)-(5) and their ligands (Ligand-1 to Ligand-5, respectively) to evaluate the cellular effect the instant complexes (and their ligands) may have on the cancer cells. AlamarBlue® dye (10%) was incubated with trypsinized cells over a 2 hour period before the fluorescence was measured with a Synergy HT Multi-Detection Microplate reader (BioTek, Winooski, Vt.) at wavelengths of 530 nm and (excitation) and 590 nm (emission). This fluorescent based assay in particular involves the metabolic oxidation-reduction reaction of resazurin to a reduced resorufin product that is directly proportional to the amount of viable cells.
The percentage cellular viability of differentially treated SNO-oesophageal cells was determined using an AlamarBlue® assay, as depicted in FIG. 7. Different controls (grey) were included: untreated, 0.1% DMSO solvent and apoptotic control (100 μM Cisplatin) as well as the corresponding ligands (10 μM) of complexes (1)-(5). Cells were treated with silver(I) thiocyanate phosphine complexes (1)-(5) at a concentration of 10 μM. The percentages were calculated with respect to the control and error bars were constructed on the basis of Standard Error of the Mean (SEM) where n=9 except for the ligand of compound 4 (n=8). The P-values (*P<0.001 and **P<0.0001) were determined with the Student's T-test to evaluate the significant difference.
The cells were thereafter treated with complexes (6)-(9) at a concentration of 10 μM prepared in 0.1% DMSO. Treatment with either 25% H2O2 or 100 μM CDDP served as controls for necrosis and apoptosis respectively. The CDDP was prepared in 0.9% NaCl while the H2O2 was diluted with supplemented DMEM prior to treatment.
A suspension (100 μl) of the differentially treated cells was added in triplicate to a microtiter plate. In the dark, AlamarBlue® dye (10 μl) was added to each well containing a sample, followed by a 2 hour incubation in a 5% CO2 incubator at 37° C. The fluorescence was read on a Synergy HT Multi-Detection Microplate reader at a wavelength of 530 nm and (excitation) and 590 nm (emission). In terms of this study, the apoptotic control CDDP (100 μM) was included. Error bars represent the standard error of the mean (SEM) where n=9. The Student's T-test was used to determine the significant difference of the treatments with respect to DMSO (P*<0.05 and P**<0.001). The silver(I) nitrate phosphine complexes under evaluation decreased the cancer cell viability to a large extent compared to DMSO except complex (9).
SNO-oesophageal cancer cells were a gift from the University of Pretoria, RSA. […]

[3] = system: SNO-oesophageal cancer cells; assay: Flow cytometric analysis (Annexin-V FITC / PI) of apoptosis and/or necrosis in SNO-oesophageal cancer cells; conditions: 10 μM, 24 hours of treatment
Procedure: To determine if either apoptosis or necrosis occurred, the cells were double labelled with Annexin-V FITC and Propidium Iodide (PI) by means of an Annexin-V FITC assay kit (Serotec, UK). This was done according to manufacturer's instructions with a few adjustments. Briefly, the cells (±3×10^5 cells/ml) were washed twice with cold phosphate buffered saline (PBS), followed by the addition of 100 μl 1× binding buffer. Two and a half microliters of Annexin-V along with 5 μl PI were added in the dark and was incubated for 15 minutes at room temperature. After incubation, 400 μl 1× binding buffer was added and cells were analysed using the FACSAria flow cytometer (BD Biosciences, San Jose, Calif.) with FACSDiva software (BD Biosciences, San Jose, Calif.) 492 nm (excitation) and 520 nm for Annexin and 488 nm and 575 nm(emission) for PI.
The cell membrane contains a negatively charged phosphatidylserine (PS) on the inner leaflet and is exposed when apoptosis or necrosis takes place. Annexin-V interacts with PS in both apoptotic and necrotic cells, making these cellular deaths undistinguishable. This is overcome by using PI as an alternative label that interacts with the exposed DNA of necrotic cells only, leading to the fluorescent detection of both these labels. Pie charts (FIG. 9) were constructed for all the controls (including Ligand-1 to Ligand-5) and the different silver(I) thiocyanate phosphine complexes (1)-(5).
Pie charts representing the four different flow cytometric quadrants of Annexin-V and […] to determine the mode of cellular death induced in differentially treated SNO-oesophageal cells are represented in FIG. 9. An untreated control (A), apoptotic control (B) and necrotic control (C) were included. Cells were treated with 10 μM of the different ligands including the silver(I) thiocyanate phosphine complexes (1)-(5). An average percentage was calculated for all segments where the SEM is n=3 for all treatments except for 15% H2O2 (n=2). The four segments represent the following: White segment—negative for FITC and PI, Light grey segment—positive for FITC but negative for PI, Dark grey segment—positive for PI but negative for FITC and Black segment—positive for both FITC and PI. Cells undergoing early apoptosis are represented by the light grey segment, while those of late apoptosis and primary necrosis are represented by the black segment. Necrotic cells are represented by the dark grey segment and intact viable cells are shown by the white segment.
Approximately 3×10^5 cells were washed with ice cold phosphate buffered saline solution (PBS). The cells were double labeled using an Annexin-V FITC assay kit adjusting the protocol. A 1× binding buffer (100 μl) was used to fix the cells. Annexin-V (2.5 μl) and Propidium Iodide (PI—5 μl) labels were added respectively followed by a 15 minute incubation, at room temperature, in the dark. After the incubation period, 400 μl of the 1× binding buffer was added, where counting of the cellular events was made using an FACSAria flow cytometer (BD Biosciences, San Jose, Calif.) with FACSDiva software (BD Biosciences, San Jose, Calif.). This technique in particular identifies whether predicted apoptotic cell death (or necrosis) was induced by these complexes.
As observed in FIG. 14, dot blots represent the mode of cellular death induced in the SNO-oesophageal cancer cells after 24 hours of treatment. FIG. 14(a): 0.1% DMSO, FIG. 14(b): 100 μM CDDP, FIG. 14(c): 25% H2O2, FIG. 14(d-i): complexes (6)-(9). An average percentage was calculated for all quadrants where the SEM is n=2 for all treatments. The four quadrants represent the following: Quadrant Q3 is negative for FITC and PI, Quadrant Q4 is positive for FITC but negative for PI, Quadrant Q1 is positive for PI but negative for FITC and Quadrant Q2 is positive for both FITC and PI. Cells undergoing early apoptosis are more likely to be found in Quadrant Q4 while those of late apoptosis and primary necrosis will be found in Quadrant Q2. […]

c1ccc(P(c2ccccc2)c2ccccc2)cc1 [Ligand-1, triphenyl phosphine, reference compound]
signs of apoptosis (morphology) [1]: minimal

Cc1ccc(P(c2ccc(C)cc2)c2ccc(C)cc2)cc1 [Ligand-2, P(p-MeC6H4)3, reference compound]
cells' viability [2]: 86.4% | signs of apoptosis (morphology) [1]: minimal

Fc1ccc(P(c2ccc(F)cc2)c2ccc(F)cc2)cc1 [Ligand-3, P(4-FC6H4)3, reference compound]
signs of apoptosis (morphology) [1]: no

Clc1ccc(P(c2ccc(Cl)cc2)c2ccc(Cl)cc2)cc1 [Ligand-4, tris parachlorophenyl phosphine, reference compound]
signs of apoptosis (morphology) [1]: minimal

COc1ccc(P(c2ccc(OC)cc2)c2ccc(OC)cc2)cc1 [Ligand-5, P(p-MeOC6H4)3, reference compound]
cells' viability [2]: 80.7% | signs of apoptosis (morphology) [1]: minimal

O=[N+]([O-])[O-].[Ag+].c1ccc(P(c2ccccc2)c2ccccc2)cc1 [complex (6), AgNO3(PPh3)]
apoptotic cell death (flow cytometry, Q4 and Q2) [3]: 20%

O=[N+]1[O][Ag]([P+](c2ccccc2)(c2ccccc2)c2ccccc2)([P+](c2ccccc2)(c2ccccc2)c2ccccc2)[O]1 [complex (7), AgNO3(PPh3)2]
apoptotic cell death (flow cytometry, Q4 and Q2) [3]: 30.6%

O=[N+]([O-])[O][Ag]([P+](c1ccccc1)(c1ccccc1)c1ccccc1)([P+](c1ccccc1)(c1ccccc1)c1ccccc1)[P+](c1ccccc1)(c1ccccc1)c1ccccc1 [complex (8), AgNO3(PPh3)3]
apoptotic cell death (flow cytometry, Q4 and Q2) [3]: 24%

[AgSCN{P(4-MeOC6H4)3}2]n [complex (5)]
percentage cellular viability / toxicity ([2]; 10 μM, 24 hour treatment, compared to the control): highly toxic | necrotic cell death (morphology) [1]: Necrotic cell death was also observed
